{"source": "patent US20160115540A1", "about": "“PRODRUGS AND DRUGS” (Biogen MA Inc., priority 2013, published 2016)", "tested_on": "blood and tissues", "test": "Transcriptional profiling, acute (single) dosing, EAE mice: blood and tissues", "assay_type": "in vivo", "conditions": "100MMF-vs-Veh", "text": "EAE induction is generally performed by immunization with brain extracts, CNS proteins (such as myelin basic protein), or peptides from such protein emulsified in an adjuvant such as complete Freund's adjuvant, e.g., as described in Linker et al., Brain. 2011 March 134(Pt3): 678-92. […] FIG. 17 depicts exemplary immunophenotyping panels used to analyze various immune cell populations (e.g., T cells, T regulatory cells, NK cells, B cells, myeloid cells). […] The number of independent mice whose tissues were harvested for transcript profiling studies and whose data passed QC is shown in TABLE 15. Animals were exposed to CO2 and whole blood collected via cardiac puncture. Two 100 μl aliquots of whole blood were collected in 1.5 mL microcentrifuge tubes and snap frozen in liquid nitrogen. Peripheral (liver, spleen, kidney and jejunum) and CNS brain (cerebellum, hippocampus, striatum and cortex) tissues were harvested and snap frozen in liquid nitrogen, with special care taken to collect tissues of similar size and from the same location. All samples were stored at -80° C. until RNA extraction was conducted. For RNA preparation, frozen tissues were placed in 2 mL RNAse-free 96-well blocks with 1.5 mL QIAzol Lysis Reagent (QIAgen) and a 3.2 mm stainless steel bead (BioSpec Products, Bartlesville, Okla.). Tissues were disrupted for four cycles of 45 seconds in a Mini-Beadbeater (Biospec Products). RNA was extracted in chloroform and the aqueous phase was mixed with an equal volume of 70% ethanol. Extracted RNA was applied to RNeasy 96 plates and purified by the spin method according to the manufacturer's protocol (RNeasy 96 Universal Tissue Protocol, QIAgen, Hilden Germany). 50 ul of snap frozen mouse blood was re-suspended in lysis buffer with proteinase K and arrayed into deep-well plates for automated RNA extraction. RNA extractions were completed on […] (Beckman Coulter, Indianapolis, Ind.) using Agencourt RNAdvance Blood kit (Part number A35604) according to the manufacturer's specifications. RNA integrity was assessed using the HT RNA reagent kit (Part number 760410, Caliper Life Sciences, Hopkinton, Mass.) using a LabChip GX (PerkinElmer, Waltham, Mass.). RNA samples with a RQS score of >8.0 were considered high quality for downstream microarray processing. […] Washing and staining of the hybridized arrays were completed as described in the GeneChip Expression analysis technical manual for HT plate arrays using the Genechip® Array Station (Affymetrix, Santa Clara, Calif.) with modifications as described in […] et al. The processed GeneChip® plate arrays were scanned using GeneTitan scanner (Affymetrix, Santa Clara, Calif.). Affymetrix scans were subject to quality control (QC) measures. These tests included a visual inspection of the distribution of raw signal intensities and an assessment of RNA degradation, relative log expression (RLE), and normalized unscaled standard error (NUSE). All sample scans that passed these QC metrics were included in the analysis. […] Nucleic Acids Res 2003; 31:e15; Li C, et al. Genome Biol 2001; 2:[…]0032). […] Stat Appl Genet Mol Biol 2004; 3:Article3). […] Springer Science+Business Media 2005). […] Generally, no distinct sample groupings were apparent from this analysis; however, in the following cohorts, differences in EAE severity across the mice were manifest in global gene expression patterns: An example of this animal grouping is shown in FIG. 33 for the spinal cord from the chronically-dosed 7 h EAE mice. […] Three distinct groups of mice result from unsupervised clustering, and these animal groups correlate with the cumulative EAE score. […] Subsequent analyses for the cohorts listed above only included those animals with the most severe EAE scores; however, for the cohorts 'Spinal Cord, Acute Dosing, 7 h' and 'Spleen, Acute Dosing, 12 h,' there were an insufficient number of mice in the different treatment groups to perform such a sub-analysis. […]", "note": "Counter-ions that a name gives are not always drawn."}
{"smiles": "COC(=O)/C=C/C(=O)O", "note": "[MMF, monomethyl fumarate]", "values": [{"measurement": "FC Gm6159 /// Hnrnpr 1437526_PM_x_at", "setting": "spleen, 7 h", "result": 1.50}, {"measurement": "FC Gsto1 1456036_PM_x_at", "setting": "spleen, 7 h", "result": 1.51}, {"measurement": "FC Hadhb 1437172_PM_x_at", "setting": "spleen, 7 h", "result": 1.51}, {"measurement": "FC Herpud2 1439424_PM_x_at", "setting": "spleen, 7 h", "result": 1.62}, {"measurement": "FC Higd1c /// Mettl7a1 /// Mettl7a2 1434150_PM_a_at", "setting": "spleen, 7 h", "result": 2.40}, {"measurement": "FC Higd1c /// Mettl7a2 1456510_PM_x_at", "setting": "spleen, 7 h", "result": 1.61}, {"measurement": "FC Homer1 1437363_PM_at", "setting": "spleen, 7 h", "result": 1.60}, {"measurement": "FC Itsn1 1435884_PM_at", "setting": "spleen, 7 h", "result": 1.69}, {"measurement": "FC Kctd3 1455816_PM_a_at", "setting": "spleen, 7 h", "result": 1.51}, {"measurement": "FC Kif22 1437716_PM_x_at", "setting": "spleen, 7 h", "result": 1.68}, {"measurement": "FC Klhl7 1428091_PM_at", "setting": "spleen, 7 h", "result": 1.77}, {"measurement": "FC LOC100047324 /// Sesn1 1438931_PM_s_at", "setting": "spleen, 7 h", "result": 1.52}, {"measurement": "FC Lmcd1 1424596_PM_s_at", "setting": "spleen, 7 h", "result": 1.64}, {"measurement": "FC Lnp 1453035_PM_at", "setting": "spleen, 7 h", "result": 1.69}, {"measurement": "FC Lrrtm2 1455489_PM_at", "setting": "spleen, 7 h", "result": 1.50}, {"measurement": "FC Mcm4 1436708_PM_x_at", "setting": "spleen, 7 h", "result": 1.72}, {"measurement": "FC Metap2 1434120_PM_a_at", "setting": "spleen, 7 h", "result": 1.52}, {"measurement": "FC Mettl7a1 1454858_PM_x_at", "setting": "spleen, 7 h", "result": 1.63}, {"measurement": "FC Mkrn1 1434853_PM_x_at", "setting": "spleen, 7 h", "result": 1.62}, {"measurement": "FC Myef2 1425350_PM_a_at", "setting": "spleen, 7 h", "result": 1.59}, {"measurement": "FC Myof 1427318_PM_s_at", "setting": "spleen, 7 h", "result": 1.52}, {"measurement": "FC Ncapd3 1454952_PM_s_at", "setting": "spleen, 7 h", "result": 1.66}, {"measurement": "FC Nfkb1 1427705_PM_a_at", "setting": "spleen, 7 h", "result": 1.52}, {"measurement": "FC Nqo1 (1423627_PM_at)", "setting": "spleen, 7 h", "result": 3.23}, {"measurement": "FC Nudt12 1453139_PM_at", "setting": "spleen, 7 h", "result": 2.17}, {"measurement": "FC Otud5 1438985_PM_x_at", "setting": "spleen, 7 h", "result": 1.51}, {"measurement": "FC Pik3r1 1425514_PM_at", "setting": "spleen, 7 h", "result": 1.62}, {"measurement": "FC Pir (1429001_PM_at)", "setting": "spleen, 7 h", "result": 2.78}, {"measurement": "FC Polh 1447837_PM_x_at", "setting": "spleen, 7 h", "result": 1.64}, {"measurement": "FC Prkaca 1447720_PM_x_at", "setting": "spleen, 7 h", "result": 1.53}, {"measurement": "FC Prkar1b 1440132_PM_s_at", "setting": "spleen, 7 h", "result": 1.50}, {"measurement": "FC Prpf40a 1429436_PM_at", "setting": "spleen, 7 h", "result": 1.65}, {"measurement": "FC Psmc6 1417770_PM_s_at", "setting": "spleen, 7 h", "result": 1.77}, {"measurement": "FC Psmd9 1447670_PM_at", "setting": "spleen, 7 h", "result": 1.73}, {"measurement": "FC Rab6 1447776_PM_x_at", "setting": "spleen, 7 h", "result": 1.51}, {"measurement": "FC Rad21 1455938_PM_x_at", "setting": "spleen, 7 h", "result": 1.58}, {"measurement": "FC Ranbp2 1422621_PM_at", "setting": "spleen, 7 h", "result": 1.50}, {"measurement": "FC Ranbp2 1445883_PM_at", "setting": "spleen, 7 h", "result": 1.61}, {"measurement": "FC Rbm39 1442745_PM_x_at", "setting": "spleen, 7 h", "result": 1.54}, {"measurement": "FC Rdx 1416179_PM_a_at", "setting": "spleen, 7 h", "result": 1.53}, {"measurement": "FC Rif1 1429490_PM_at", "setting": "spleen, 7 h", "result": 1.66}, {"measurement": "FC Rlim 1439403_PM_x_at", "setting": "spleen, 7 h", "result": 1.51}, {"measurement": "FC Sec24a 1433934_PM_at", "setting": "spleen, 7 h", "result": 1.50}, {"measurement": "FC Smc4 1427275_PM_at", "setting": "spleen, 7 h", "result": 1.56}, {"measurement": "FC Smc6 1460069_PM_at", "setting": "spleen, 7 h", "result": 1.52}, {"measurement": "FC Smpd4 1429530_PM_a_at", "setting": "spleen, 7 h", "result": 2.04}, {"measurement": "FC Sorbs1 1436737_PM_a_at", "setting": "spleen, 7 h", "result": 1.71}, {"measurement": "FC Sp4 1437508_PM_at", "setting": "spleen, 7 h", "result": 1.67}, {"measurement": "FC Srxn1 (1419942_PM_at)", "setting": "spleen, 7 h", "result": 1.82}, {"measurement": "FC Srxn1 (1426875_PM_s_at)", "setting": "spleen, 7 h", "result": 1.94}, {"measurement": "FC Srxn1 (1451680_PM_at)", "setting": "spleen, 7 h", "result": 1.68}, {"measurement": "FC Suz12 1449661_PM_at", "setting": "spleen, 7 h", "result": 1.56}, {"measurement": "FC Svip 1429146_PM_at", "setting": "spleen, 7 h", "result": 1.59}, {"measurement": "FC Tceb1 1452593_PM_a_at", "setting": "spleen, 7 h", "result": 1.50}, {"measurement": "FC Terf1 1443527_PM_at", "setting": "spleen, 7 h", "result": 1.71}, {"measurement": "FC Thoc1 1420042_PM_at", "setting": "spleen, 7 h", "result": 1.89}, {"measurement": "FC Tmem41b 1428586_PM_at", "setting": "spleen, 7 h", "result": 1.88}, {"measurement": "FC Tmem64 1433735_PM_a_at", "setting": "spleen, 7 h", "result": 1.70}, {"measurement": "FC Tnks2 1447522_PM_s_at", "setting": "spleen, 7 h", "result": 1.63}, {"measurement": "FC Tspyl1 1415908_PM_at", "setting": "spleen, 7 h", "result": 1.66}, {"measurement": "FC Ttc14 1437878_PM_s_at", "setting": "spleen, 7 h", "result": 1.53}, {"measurement": "FC Txnl1 1435235_PM_at", "setting": "spleen, 7 h", "result": 1.59}, {"measurement": "FC Usp14 1437714_PM_x_at", "setting": "spleen, 7 h", "result": 1.57}, {"measurement": "FC Zfp800 1456790_PM_at", "setting": "spleen, 7 h", "result": 1.83}, {"measurement": "FC Zfx 1419565_PM_a_at", "setting": "spleen, 7 h", "result": 1.50}, {"measurement": "FC 4930427A07Rik 1455818_PM_at", "setting": "whole blood, 7 h", "result": "−1.59"}, {"measurement": "FC Klra3 /// Klra9 1425436_PM_x_at", "setting": "whole blood, 7 h", "result": "−2.05"}, {"measurement": "FC Klra8 1425417_PM_x_at", "setting": "whole blood, 7 h", "result": "−2.10"}, {"measurement": "FC Rnf128 (1449036_PM_at)", "setting": "whole blood, 7 h", "result": 1.54}, {"measurement": "FC Serpinb6b 1422804_PM_at", "setting": "whole blood, 7 h", "result": "−1.64"}, {"measurement": "FC Xpc 1422532_PM_at", "setting": "whole blood, 7 h", "result": 1.59}, {"measurement": "FC 1445666_PM_at", "setting": "whole blood, 12 h", "result": 2.14}, {"measurement": "FC Prdm2 1453068_PM_at", "setting": "whole blood, 12 h", "result": 1.70}]}
